Test [1] deals with GDP-bound HRAS wild-type protein (Homo sapiens, UniProt P01112). The experiment in a line: Binding to HRAS by surface plasmon resonance (SPR), Single Cycle Kinetics. The note with it: ratio of KD for GDP-bound HRAS wild-type protein to KD for KRAS, SPR. (Surface plasmon resonance follows binding to a sensor surface in real time, without labels.)
Test [2] deals with human lung cancer strain NCI-H441. The experiment in a line: cells. To be noted: NCI-H441, 96 h, read-out: NCI-H441 IC50 (nM), NCI-H441 cell proliferation, 4 days, CellTiter-Glo.
Test [3] has as its target GDP-bound NRAS wild-type protein (Homo sapiens, UniProt P01111). The experiment in a line: Binding to NRAS by surface plasmon resonance (SPR), Single Cycle Kinetics. To be noted: ratio of KD for GDP-bound NRAS wild-type protein to KD for KRAS, SPR.
The target of test [4] is GDP-bound KRAS wild-type protein (Homo sapiens, UniProt P01116). Nature of the test: Binding to KRAS by surface plasmon resonance (SPR), Single Cycle Kinetics. To be noted: SPR, Single Cycle Kinetics, GDP-bound KRAS wild-type protein; read-out: KRAS KD.

*1 amine or outer side, *2 acyl side, *3 side chain or, on linkers, in order; H or OH if unused. Where a SMILES comes first, the peptide text is derived from it. Bridges are numbered along the chain shown (N, C = ends). [ ]: non-standard residue; d: D form. The star is where a group is joined. hPhe(3-Cl-4-CF3) = N[C@@H](CCc1ccc(C(F)(F)F)c(Cl)c1)C(=O)O; NPrPhe(4-CF3) = CCCN[C@@H](Cc1ccc(C(F)(F)F)cc1)C(=O)O; NEtAsp = CCN([C@@H](CC(=O)[*:3])C(=O)[*:2])[*:1]; NMeGly(cPent) = CN[C@H](C(=O)O)C1CCCC1; NMeNva(3-Et) = CCC(CC)[C@H](NC)C(=O)O; NMeD = CN[C@@H](CC(=O)O)C(=O)O; NMeL = CN[C@@H](CC(C)C)C(=O)O; NMeNva = CCC[C@H](NC)C(=O)O; Morpholide = C1CN(*)CCO1; NMeA = CN[C@@H](C)C(=O)O; Aze = O=C(O)[C@@H]1CCN1; Ac4c = NC1(C(=O)O)CCC1; Sar = CNCC(=O)O
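Wherever IC50 is given: cell proliferation inhibition after four days measured by CellTiter-Glo.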

Chain of GDP-bound HRAS wild-type protein (P01112 whole entry): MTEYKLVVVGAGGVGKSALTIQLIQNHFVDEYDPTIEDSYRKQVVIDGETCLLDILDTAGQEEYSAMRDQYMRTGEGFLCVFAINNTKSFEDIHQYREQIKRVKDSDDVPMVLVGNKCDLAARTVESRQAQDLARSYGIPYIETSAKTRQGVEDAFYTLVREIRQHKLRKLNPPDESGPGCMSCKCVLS
Chain of GDP-bound NRAS wild-type protein (P01111 whole entry): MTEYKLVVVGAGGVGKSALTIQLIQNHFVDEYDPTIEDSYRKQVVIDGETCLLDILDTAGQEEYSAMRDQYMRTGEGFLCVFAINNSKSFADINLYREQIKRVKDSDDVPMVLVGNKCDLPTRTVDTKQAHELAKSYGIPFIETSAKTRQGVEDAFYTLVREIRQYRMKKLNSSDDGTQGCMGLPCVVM
Chain of GDP-bound KRAS wild-type protein (P01116 whole entry): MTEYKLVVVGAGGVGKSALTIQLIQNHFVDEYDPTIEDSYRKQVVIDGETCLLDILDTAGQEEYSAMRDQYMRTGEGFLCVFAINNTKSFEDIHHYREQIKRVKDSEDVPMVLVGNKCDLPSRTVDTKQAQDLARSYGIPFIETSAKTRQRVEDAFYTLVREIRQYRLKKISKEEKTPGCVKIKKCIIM

With `CCO[C@@H]1C[C@H]2C(=O)NC3(CCC3)C(=O)N(C)[C@@H](C3CCCC3)C(=O)N(C)[C@H](C(=O)N(C)C)CC(=O)N(C)[C@@H](CC)C(=O)N[C@@H]([C@@H](C)CC)C(=O)N(C)CC(=O)N(C)[C@H]3C/C=C\CCN(C3=O)[C@@H](Cc3ccc(C(F)(F)F)cc3)C(=O)N(C)CC(=O)N[C@@H](CCc3cc(C)c(Cl)c(C)c3)C(=O)N2C1` [PP1821], the “HRAS/KRAS (KD ratio)” value in test [1] was “A (a compound having 10 or more and less than 20 is denoted as A)”. Also, the IC50 in test [2] was found to be 105 nM. For the same compound, the “NRAS/KRAS (KD ratio)” value in test [3] is “A (a compound having 10 or more and less than 20 is denoted as A)”. For the same compound, the dissociation constant (Kd) in test [4] is 0.63 nM.
On to `CCCN(C)C(=O)[C@@H]1CC(=O)N(C)[C@@H](CC(F)F)C(=O)N[C@@H]([C@@H](C)CC)C(=O)N(C)CC(=O)N(C)[C@H]2C/C=C\CCN(C2=O)[C@@H](Cc2ccc(C(F)(F)F)cc2)C(=O)N(C)CC(=O)N[C@@H](CCc2cc(F)c(Cl)c(F)c2)C(=O)N2C[C@H](OCC)C[C@H]2C(=O)NC2(CC(C)(C)C2)C(=O)N(C)[C@@H](C2CCCC2)C(=O)N1C` [PP1757], for which the “HRAS/KRAS (KD ratio)” value in test [1] was “A (a compound having 10 or more and less than 20 is denoted as A)”. For the same compound, the IC50 in test [2] is 7.1 nM. In addition, the “NRAS/KRAS (KD ratio)” value in test [3] is “AA (a compound having 20 or more is denoted as AA)”. Moreover, the equilibrium dissociation constant (Kd) in test [4] came to 0.31 nM.
Turning to `CC[C@H](C)[C@@H]1NC(=O)[C@H](CCOC)N(C)C(=O)C[C@@H](C(=O)N(C)CC)N(C)C(=O)[C@H](C2CCCC2)N(C)C(=O)C2(CC(C)(C)C2)NC(=O)[C@@H]2C[C@H](C)CN2C(=O)[C@H](CCc2cc(F)c(C(F)(F)F)c(F)c2)NC(=O)CN(C)C(=O)[C@H](Cc2ccc(C(F)(F)F)cc2)N2CC/C=C\C[C@@H](C2=O)N(C)C(=O)CN(C)C1=O` [PP1972], the “HRAS/KRAS (KD ratio)” value in test [1] is “A (a compound having 10 or more and less than 20 is denoted as A)”. For the same compound, in test [2], the IC50 was determined as 13.2 nM. Further, in test [3], the “NRAS/KRAS (KD ratio)” value is “A (a compound having 10 or more and less than 20 is denoted as A)”. For the same compound, the Kd in test [4] is 0.15 nM.
`CCO[C@@H]1C[C@H]2C(=O)NC3(CC(C)(C)C3)C(=O)N(C)[C@@H](C(CC)CC)C(=O)N3CCC[C@@H]3CC(=O)N(C)[C@@H](CC3CC3)C(=O)N[C@@H]([C@@H](C)CC)C(=O)N(C)CC(=O)N(C)[C@H]3C/C=C\CCN(C3=O)[C@@H](Cc3ccc(C(F)(F)F)cc3)C(=O)N(C)CC(=O)N[C@@H](CCc3cc(F)c(C(F)(F)F)c(F)c3)C(=O)N2C1` [PP1610]: the “HRAS/KRAS (KD ratio)” value in test [1] was “A (a compound having 10 or more and less than 20 is denoted as A)”. The IC50 in test [2] was 86.8 nM. The “NRAS/KRAS (KD ratio)” value in test [3] was “A (a compound having 10 or more and less than 20 is denoted as A)”. Moreover, the Kd in test [4] came to 1.4 nM.
`CCCN1C(=O)CN(C)C(=O)CN(C)C(=O)[C@H]([C@@H](C)CC)NC(=O)[C@H](CC(C)C)N(C)C(=O)C[C@@H](C(=O)N2CCOCC2)N(C)C(=O)[C@H](C(CC)CC)N(C)C(=O)C2(CCC2)NC(=O)[C@@H]2CCCN2C(=O)[C@H](CCc2ccc(C(F)(F)F)c(Cl)c2)NC(=O)CN(C)C(=O)[C@@H]1Cc1ccc(C(F)(F)F)cc1` [PP1958] ([NMeL]I[Sar][Sar][NPrPhe(4-CF3)][Sar][hPhe(3-Cl-4-CF3)]P[Ac4c][NMeNva(3-Et)][NMeD]-Morpholide; lactam N-11): the “HRAS/KRAS (KD ratio)” value in test [1] was “B (a compound having 3 or more and less than 10 is denoted as B)”. For the same compound, the IC50 in test [2] came out at 57.8 nM. Also, the “NRAS/KRAS (KD ratio)” value in test [3] is “B (a compound having 3 or more and less than 10 is denoted as B)”. Moreover, the Kd in test [4] stood at 0.53 nM.
On to `CC[C@H](C)[C@@H]1NC(=O)[C@H](CC)N(C)C(=O)C[C@@H](C(=O)N(C)CC)N(C)C(=O)[C@H](C2CCCC2)N(C)C(=O)C2(CC(C)(C)C2)NC(=O)[C@@H]2C[C@@H](C)CN2C(=O)[C@H](CCc2ccc(C(F)(F)F)c(OC)c2)NC(=O)CN(C)C(=O)[C@H](Cc2ccc(C)cc2)N2CC/C=C\C[C@@H](C2=O)N(C)C(=O)CN(C)C1=O` [PP1870], for which the “HRAS/KRAS (KD ratio)” value in test [1] is “A (a compound having 10 or more and less than 20 is denoted as A)”. Also, in test [2], the IC50 was 12.4 nM. Besides, the “NRAS/KRAS (KD ratio)” value in test [3] is “A (a compound having 10 or more and less than 20 is denoted as A)”. Moreover, in test [4], the dissociation constant Kd was determined as 0.19 nM.
Take `CC[C@H](C)[C@@H]1NC(=O)[C@H](CC(C)C)N(C)C(=O)C[C@@H](C(=O)N(C)C)N(C)C(=O)[C@H](C2CCCC2)N(C)C(=O)C2(CC(C)(C)C2)NC(=O)[C@@H]2CC(F)(F)CN2C(=O)[C@H](CCc2cc(F)c(C(F)(F)F)c(F)c2)NC(=O)CN(C)C(=O)[C@H](Cc2ccc(C(F)(F)F)cc2)N2CC/C=C\C[C@@H](C2=O)N(C)C(=O)CN(C)C1=O` [PP1715]: the “HRAS/KRAS (KD ratio)” value in test [1] is “A (a compound having 10 or more and less than 20 is denoted as A)”. Also, the IC50 in test [2] was 2.7 nM. Besides, in test [3], the “NRAS/KRAS (KD ratio)” value was “AA (a compound having 20 or more is denoted as AA)”. Also, in test [4], the dissociation constant Kd was found to be 0.061 nM.
`CCC[C@H]1C(=O)N[C@@H]([C@@H](C)CC)C(=O)N(C)CC(=O)N(C)[C@H]2C/C=C\CCN(C2=O)[C@@H](Cc2ccc(C(F)(F)F)cc2)C(=O)N(C)CC(=O)N[C@@H](CCc2cc(F)c(C(F)(F)F)c(F)c2)C(=O)N2C[C@H](OCC)C[C@H]2C(=O)NC2(CC(C)(C)C2)C(=O)N(C)[C@@H](C2CCCC2)C(=O)N(C)[C@H](C(=O)N(C)CC)CC(=O)N1C` [PP1646]: the “HRAS/KRAS (KD ratio)” value in test [1] was “A (a compound having 10 or more and less than 20 is denoted as A)”. The IC50 in test [2] was found to be 2.8 nM. In test [3], the “NRAS/KRAS (KD ratio)” value was “A (a compound having 10 or more and less than 20 is denoted as A)”. For the same compound, the Kd in test [4] was 0.12 nM.
Take `CCC[C@H]1C(=O)N[C@@H]([C@@H](C)CC)C(=O)N(C)[C@@H](C)C(=O)N2CC[C@H]2C(=O)N(CCC)[C@@H](Cc2ccc(C(F)(F)F)cc2)C(=O)N(C)CC(=O)N[C@@H](CCc2ccc(C(F)(F)F)c(Cl)c2)C(=O)N2CCC[C@H]2C(=O)NC2(CCC2)C(=O)N(C)[C@@H](C2CCCC2)C(=O)N(CC)[C@H](C(=O)N2CCOCC2)CC(=O)N1C` [PP1955] ([NMeNva]I[NMeA][Aze][NPrPhe(4-CF3)][Sar][hPhe(3-Cl-4-CF3)]P[Ac4c][NMeGly(cPent)][NEtAsp]-Morpholide; lactam N-11): in test [1], the “HRAS/KRAS (KD ratio)” value is “B (a compound having 3 or more and less than 10 is denoted as B)”. In addition, in test [2], the IC50 is 4.4 nM. Further, the “NRAS/KRAS (KD ratio)” value in test [3] is “C (A compound having a KD ratio of 0.1 or more and less than 3 is denoted as C)”. Also, the dissociation constant Kd in test [4] amounted to 0.82 nM.
Consider `CCO[C@@H]1C[C@H]2C(=O)NC3(CC(F)(F)C3)C(=O)N(C)[C@@H](C3CCCC3)C(=O)N(C)[C@H](CC)CC(=O)N(C)[C@@H](CC3CC3)C(=O)N[C@@H]([C@@H](C)CC)C(=O)N(C)CC(=O)N(C)[C@H]3C/C=C\CCN(C3=O)[C@@H](Cc3ccc(C(F)(F)F)cc3)C(=O)N(C)CC(=O)N[C@@H](CCc3cc(F)c(C(F)(F)F)c(F)c3)C(=O)N2C1` [PP1633], for which the “HRAS/KRAS (KD ratio)” value in test [1] is “B (a compound having 3 or more and less than 10 is denoted as B)”. In test [2], the IC50 was 15.1 nM. In addition, the “NRAS/KRAS (KD ratio)” value in test [3] was “A (a compound having 10 or more and less than 20 is denoted as A)”. Also, the dissociation constant Kd in test [4] is 0.6 nM.

A word on the Kd: it is the free concentration of one partner at which half of the binding sites on the other are occupied at equilibrium, for simple one-to-one binding.

Source of the values: patent US20240158446A1, “CYCLIC COMPOUND HAVING SELECTIVE INHIBITORY ACTION ON KRAS OVER HRAS AND NRAS” (CHUGAI SEIYAKU KABUSHIKI KAISHA, priority 2021, published 2024).
